The values that follow are results of earlier work, collected in patent US7612202B2, “Process for preparing temozolomide” (Chemagis, Ltd., priority 2005, dated 2009).

“Also recorded” adds a separate entry of the source.

The conditions of series [1]: administered Temozolomide dose.

Take `Cn1nnc2c(C(N)=O)ncn2c1=O` [Temozolomide, 8-carbamoyl-3-methyl-imidazo[5,1-d]-1,2,3,5-tetrazin-4(3H)-one]: under “aqueous buffers, pH<5”, the “stability at acidic pH” value was “stable”. Besides, for the setting “aqueous buffers, pH>7”, the “stability at pH>7” value is recorded as “labile; also recorded: rapidly decomposes to MTIC”. Besides, the in vitro half-life (phosphate buffer at 37° C. and pH 7.4) is 1.9 h. In addition, the “percentage of administered dose metabolized to TMA” value in series [1] is given as “about 2%”.
